# Patent US3946000A, “7-[α-(2-Aminomethyl-1-cyclohexenyl)-acetamido]-3-heterocyclic thiomethyl-3-cephem-4-carboxylic acids” (Bristol-Myers Company, priority 1973, dated 1976)
# Read-outs that look alike come from different tables or passages of the source.
# Experiments:
# [1] = Solubility in 0.1 M pH 7.0 phosphate buffer (bioassay and UV-assay); format: physicochemical; conditions: 0.1 m phosphate buffer, pH 7, aqueous buffer
# Method: *Stirred at 25° C. for 4 hours in 0.1 M pH 7.0 phosphate
# buffer--filtered through Milipore filter (0.45 μ)--assayed
# spectroscopically against its own standard.
# The test solution and the standard solution are prepared as described below.
# About 10 mg. (1) of a sample is placed in a vial and mixed with 1 ml. of 0.1 M phosphate buffer (pH 7.0). The vial is stoppered, sealed with a metal cap, placed on a rotary shaker and agitated at 160 rpm for 4 hr. at 25° C. The solution is filtered through a Millipore filter (HAWP 01300, mean pore size 0.45 μm). The filtrate is diluted to use for bioassay and UV assay as follows:
# About 2 mg. of the same sample is weighed precisely and dissolved in 4 ml. of 1% K2 CO3 solution^(3) (usually within one minute). The solution is diluted exactly to 50 ml. in a flask with 0.1 M pH 7.0 phosphate buffer and used for the preparation of the standard solutions for bioassay and UV-assay as follows:
# (1) A 20 mg. or more sample is used when the sample is expected to be more soluble.
# (2) 0.1 M pH 7.0 phosphate buffer is used as a diluent in the present test and also as a reference solution in UV-assay.
# (3) It was previously confirmed that almost the same result is obtained when the sample is solubilized in DMSO (dimethylsulfoxide) and then diluted similarily with the buffer.
# (4) Volume of the solution is measured precisely with an appropriate pipette or flask.
# BA: Bioassay, UV: UV-assay Results given for the same compound on different lines were obtained using samples from different lots.
# Water solubility = format: physicochemical; conditions: sodium salt
# S. aureus Smith A9537 = test: M.I.C. by Tube Dilution, S. aureus Smith A9537; format: cell-based; conditions: Staphylococcus aureus, 10^-4 dilution, overnight at 37° C.
# S. aureus Russel = test: M.I.C. by Tube Dilution, S. aureus Russel; format: cell-based; conditions: Nutrient Broth, overnight at 37° C.; for MIC: Staphylococcus aureus
# S. aureus BX1633 A9606 = test: M.I.C. by Tube Dilution, S. aureus BX1633 A9606; format: cell-based; conditions: Nutrient Broth, overnight at 37° C.; for MIC: Staphylococcus aureus, BX1633A9606, S. aureus BX1633 A9606
# D. pneumoniae A9585 = test: M.I.C. by Tube Dilution, D. pneumoniae A9585; format: cell-based; conditions: Streptococcus pneumoniae, A9585, D. pneumoniae A9585 + 5% serum; 50% Nutrient Broth - 45% Antibiotic Assay Broth; overnight at 37° C.
# Mycobacterium 607 = test: M.I.C. by Tube Dilution, Mycobacterium 607; format: cell-based; conditions: overnight at 37° C.
# E. coli NIHJ = test: M.I.C. by Tube Dilution, E. coli NIHJ; format: cell-based; conditions: Escherichia coli, overnight at 37° C.
# E. coli ATCC 8739 = test: M.I.C. by Tube Dilution, E. coli ATCC 8739; format: cell-based; conditions: Escherichia coli, ATCC8739, overnight at 37° C.
# E. coli Juhl A15119 = test: M.I.C. by Tube Dilution, E. coli Juhl A15119; format: cell-based; conditions: Escherichia coli, JUHLA15119, 10^-4 dilution, overnight at 37° C.
# K. pneumoniae A9977 = test: M.I.C. by Tube Dilution, K. pneumoniae A9977; format: cell-based; conditions: Klebsiella pneumoniae, 10^-4 dilution, overnight at 37° C.
# K. pneumoniae A15130 = test: M.I.C. by Tube Dilution, K. pneumoniae A15130; format: cell-based; conditions: Klebsiella pneumoniae, 10^-4 dilution, overnight at 37° C.
# Pr. mirabilis A9900 = test: M.I.C. by Tube Dilution, Pr. mirabilis A9900; format: cell-based; conditions: Proteus mirabilis, 10^-4 dilution, overnight at 37° C.
# Pr. morganii A15153 = test: M.I.C. by Tube Dilution, Pr. morganii A15153; format: cell-based; conditions: Morganella morganii, 10^-4 dilution, overnight at 37° C.
# Sal. enteritidis A9531 = test: M.I.C. by Tube Dilution, Sal. enteritidis A9531; format: cell-based; conditions: Salmonella enterica, 10^-4 dilution, overnight at 37° C.
# Ser. marcescens A20019 = test: M.I.C. by Tube Dilution, Ser. marcescens A20019; format: cell-based; conditions: Serratia marcescens, 10^-4 dilution, overnight at 37° C.
# Ps. aeruginosa A9843 = test: M.I.C. by Tube Dilution, Ps. aeruginosa A9843; format: cell-based; conditions: Pseudomonas aeruginosa, 10^-4 dilution, overnight at 37° C.
# Str. pyogenes A9604 = test: M.I.C. by Tube Dilution, Str. pyogenes A9604; format: cell-based; conditions: Streptococcus pyogenes; Str. pyogenes A9604 + 5% serum; 50% Nutrient Broth - 45% Antibiotic Assay Broth; overnight at 37° C.
# S. aureus BX-1633 = test: Minimum curative dose in infected mice, S. aureus BX-1633; format: in vivo; conditions: Staphylococcus aureus, BX1633, sc; subcutaneous, mice infected with lethal dose of S. aureus BX-1633; read-out: CD50 (minimum curative dose for 50% of the mice)
# E coli Juhl = test: Minimum curative dose in infected mice, E coli Juhl; format: in vivo; conditions: Mus musculus, sc; subcutaneous, mice infected with lethal dose of E coli Juhl; read-out: CD50 (minimum curative dose for 50% of the mice)
# [2] = 0.1 M phosphate buffer (pH 7.0), 4 hr. at 25° C., UV-assay, read-out: Solubility, UV (UV-assay)
# [3] = 0.1 M phosphate buffer (pH 7.0), 4 hr. at 25° C., bioassay, read-out: Solubility, BA (bioassay)
# [4] = stirred at 25° C. for 4 hours in 0.1 M pH 7.0 phosphate buffer, assayed spectroscopically against its own standard, read-out: Solubility
# [5] = UV-assay, read-out: Solubility (UV)
# [6] = bioassay, read-out: Solubility (BA)
smiles,measurement,setting,value
"Cc1nnc(SCC2=C(C(=O)O)N3C(=O)C(NC(=O)CC4=C(CN)CCCC4)[C@H]3SC2)s1 (stereo partly drawn) [Example 4, 7-[α-(2-aminomethyl-1-cyclohexenyl)acetamido]-3-(5-methyl-1,3,4-thiadiazol-2-ylthiomethyl)-3-cephem-4-carboxylic acid]",solubility at 4 h,[1]; [2],4600 µg/mL
same,solubility at 4 h,[1]; [3],4300 µg/mL
same,solubility at 4 h,[1]; [4],4300 to 4600 µg/mL
"NCC1=C(CC(=O)NC2C(=O)N3C(C(=O)O)=C(CSc4ccc5nnc(O)n5n4)CSC23)CCCC1 (stereo not drawn) [Example 5, 7-[α-(2-Aminomethyl-1-cyclohexenyl)acetamido]-3-(3-hydroxypyridazino-[3,2-c]-3-triazol-6-ylthiomethyl)-3-cephem-4-carboxylic acid]",solubility at 4 h,[1]; [2],8100 µg/mL
same,solubility at 4 h,[1]; [3],8000 µg/mL
same,solubility at 4 h,[1]; [4],8000 µg/mL
Cn1nnnc1SCC1=C(C(=O)O)N2C(=O)C(NC(=O)CC3=C(CN)CCCC3)C2SC1 (stereo not drawn) [Example 15],solubility,Water solubility,> 250000 µg/mL
"CC(=O)OCC1=C(C(=O)O)N2C(=O)C(NC(=O)CC3=C(CN)CCCC3)C2SC1 (stereo not drawn) [Example 16, 7-[α-(2-Aminomethy-1-cyclohexenyl)acetamido]cephalosporanic acid]",solubility at 4 h,[1]; [5],5300 µg/mL
same,solubility at 4 h,[1]; [6],5400 µg/mL
same,MIC,"S. aureus Smith A9537; SMITHA9537, S. aureus Smith A9537 + 50% serum",3.1 µg/mL
same,MIC,"S. aureus Smith A9537; SMITHA9537, S. aureus Smith A9537, Nutrient Broth",0.8 µg/mL
same,MIC,S. aureus Russel,0.8 to 1.6 µg/mL
same,MIC,S. aureus BX1633 A9606,3.1 µg/mL
same,MIC,D. pneumoniae A9585,0.16 to 0.31 µg/mL
same,MIC,Mycobacterium 607,> 100 µg/mL
same,MIC,E. coli NIHJ,25 to 50 µg/mL
same,MIC,E. coli ATCC 8739,25 µg/mL
same,MIC,E. coli Juhl A15119,25 µg/mL
same,MIC,K. pneumoniae A9977,12.5 to 25 µg/mL
same,MIC,K. pneumoniae A15130,12.5 to 50 µg/mL
same,MIC,Pr. mirabilis A9900,50 µg/mL
same,MIC,Pr. morganii A15153,> 100 µg/mL
same,MIC,Sal. enteritidis A9531,12.5 µg/mL
same,MIC,Ser. marcescens A20019,> 100 µg/mL
same,MIC,Ps. aeruginosa A9843,> 100 µg/mL
"CC1=C(C(=O)O)N2C(=O)C(NC(=O)CC3=C(CN)CCCC3)C2SC1 (stereo not drawn) [Example 17, 7-[α-(2-Aminomethyl-1-cyclohexenyl)acetamido]desacetoxycephalosporanic acid]",solubility at 4 h,[1]; [5],3300 µg/mL
same,solubility at 4 h,[1]; [6],4100 µg/mL
same,M.I.C.,S. aureus Russel; listed as 6x,12.5 Mcg./ml.
same,MIC,S. aureus Russel,> 12.5 µg/mL
same,M.I.C.,"S. aureus BX1633 A9606; S. aureus BX1633 A9606, listed as 6x",25 Mcg./ml.
same,MIC,S. aureus BX1633 A9606,> 12.5 µg/mL
same,MIC,Str. pyogenes A9604,1.25 to 2.5 µg/mL
same,MIC,Mycobacterium 607,> 100 µg/mL
same,MIC,E. coli NIHJ,> 100 µg/mL
same,MIC,E. coli ATCC 8739,> 100 µg/mL
same,MIC,E. coli Juhl A15119,> 100 µg/mL
same,MIC,K. pneumoniae A9977,> 100 µg/mL
same,MIC,K. pneumoniae A15130,> 100 µg/mL
same,MIC,Pr. mirabilis A9900,> 100 µg/mL
same,MIC,Pr. morganii A15153,> 100 µg/mL
same,MIC,Sal. enteritidis A9531,> 100 µg/mL
same,MIC,Ser. marcescens A20019,> 100 µg/mL
same,MIC,Ps. aeruginosa A9843,> 100 µg/mL
"Cn1nnnc1SCC1=C(C(=O)O)N2C(=O)C(NC(=O)Cc3ccccc3CN)C2SC1 (stereo not drawn) [MR-S94, reference compound]",solubility at 4 h,[1]; [2],1900 µg/mL
same,solubility at 4 h,[1]; [3],2000 µg/mL
same,solubility at 4 h,[1]; [4],1900 µg/mL
same,ED50,S. aureus BX-1633,3.4 mg/kg
same,ED50,E coli Juhl,4.4 mg/kg
"Cc1nnc(SCC2=C(C(=O)O)N3C(=O)C(NC(=O)Cc4ccccc4CN)C3SC2)s1 (stereo not drawn) [MR-S96, reference compound]",solubility at 4 h,[1]; [2],900 µg/mL
same,solubility at 4 h,[1]; [3],1200 µg/mL
same,solubility at 4 h,[1]; [4],900 µg/mL
